Data reported in the supplement of paper PMC10883282.
Counter-ions that a name gives are not always drawn. ± gives the standard deviation of the averaged measurements.

Test system: SW684
Assay: relative viability vs DMSO control (72 h) (fraction); higher = more viable cells
Procedure, shortened: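 Plates held 72 h at 37 °C and 5% CO2 contained sarcoma cell lines seeded in 384-well format to reach 80–90% confluence, plus 2.5 µl of serially diluted compound added after 24 h. Source plate concentrations ran from 10 mM to 0.0002 mM, with 0.1% DMSO as vehicle and a 5 µM positive control. Percent growth from ATPLite readings, averaged over up to triplicate wells, gave relative viability. Values were rescaled with 1 as full and 0 as none.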

SMILES | relative viability (0.00017 µM) | relative viability (0.00051 µM) | relative viability (0.00152 µM) | relative viability (0.00457 µM) | relative viability (0.01372 µM) | relative viability (0.04115 µM) | relative viability (0.1235 µM) | relative viability (0.3704 µM) | relative viability (1.111 µM) | relative viability (3.333 µM) | relative viability (10 µM) | relative viability (2 pM) | relative viability (5 pM) | relative viability (15 pM) | relative viability (50 pM) | relative viability (0.00014 µM) | relative viability (0.00041 µM) | relative viability (0.0012 µM) | relative viability (0.0037 µM) | relative viability (0.011 µM) | relative viability (200 fM) | relative viability (600 fM)
Cc1ccc(F)c(NC(=O)Nc2ccc(-c3cccc4[nH]nc(N)c34)cc2)c1 [Linifanib] | 1.11 ± 0.014 | 1.14 ± 0.02 | 1.13 ± 0.039 | 1.18 ± 0.03 | 1.17 ± 0.023 | 1.18 ± 0.04 | 1.15 ± 0.027 | 1.139 ± 0.011 | 1.16 ± 0.045 | 1.15 ± 0.049 | 1.12 ± 0.041 |  |  |  |  |  |  |  |  |  |  | 
CC(C)N1CCN(Cc2cnc(-c3cc(-c4cccc5[nH]ccc45)cc4[nH]ncc34)o2)CC1 [Nemiralisib] | 1 ± 0.084 | 0.911 ± 0.069 | 0.851 ± 0.033 | 0.804 ± 0.014 | 0.721 ± 0.019 | 0.68 ± 0.051 | 0.695 ± 0.011 | 0.618 ± 0.03 | 0.541 ± 0.035 | 0.548 ± 0.027 | 0.444 ± 0.043 |  |  |  |  |  |  |  |  |  |  | 
COCc1c(-c2cc3cc(C)cc(OC)c3s2)c2c(N)ncnn2c1CN1CCNC(=O)C1 [Rogaratinib] | 1.11 ± 0.051 | 1.16 ± 0.028 | 1.16 ± 0.088 | 1.16 ± 0.043 | 1.15 ± 0.03 | 1.15 ± 0.018 | 1.12 ± 0.082 | 1.14 ± 0.061 | 1.09 ± 0.018 | 1.04 ± 0.019 | 0.898 ± 0.038 |  |  |  |  |  |  |  |  |  |  | 
Cc1cc(Nc2ncnc3ccc(NC4=NC(C)(C)CO4)cc23)ccc1Oc1ccn2ncnc2c1 [Tucatinib] | 1.17 ± 0.019 | 1.2 ± 0.024 | 1.2 ± 0.024 | 1.18 ± 0.03 | 1.21 ± 0.068 | 1.21 ± 0.068 | 1.22 ± 0.09 | 1.19 ± 0.098 | 1.14 ± 0.016 | 1.13 ± 0.074 | 1.08 ± 0.0088 |  |  |  |  |  |  |  |  |  |  | 
O=C(Nc1cnn2ccc(N3CCC[C@@H]3c3cc(F)ccc3F)nc12)N1CC[C@H](O)C1 [Larotrectinib] | 1.13 ± 0.057 | 1.19 ± 0.071 | 1.19 ± 0.044 | 1.16 ± 0.025 | 1.2 ± 0.073 | 1.15 ± 0.05 | 1.14 ± 0.043 | 1.17 ± 0.084 | 1.16 ± 0.021 | 1.09 ± 0.069 | 1.1 ± 0.04 |  |  |  |  |  |  |  |  |  |  | 
CN1CCC(COc2cnc(-c3cccc(Cn4nc(-c5cccc(C#N)c5)ccc4=O)c3)nc2)CC1 [Tepotinib] | 1.11 ± 0.034 | 1.21 ± 0.032 | 1.14 ± 0.055 | 1.16 ± 0.039 | 1.16 ± 0.043 | 1.15 ± 0.065 | 1.18 ± 0.067 | 1.16 ± 0.096 | 1.14 ± 0.08 | 1.1 ± 0.044 | 0.865 ± 0.047 |  |  |  |  |  |  |  |  |  |  | 
C[C@@H]1CCN(C(=O)CC#N)C[C@@H]1N(C)c1ncnc2[nH]ccc12 [Tofacitinib] | 1.2 ± 0.035 | 1.24 ± 0.023 | 1.2 ± 0.004 | 1.23 ± 0.028 | 1.215 ± 0.012 | 1.192 ± 0.0029 | 1.19 ± 0.018 | 1.22 ± 0.031 | 1.11 ± 0.021 | 1.1 ± 0.015 | 0.943 ± 0.029 |  |  |  |  |  |  |  |  |  |  | 
N#CC[C@H](C1CCCC1)n1cc(-c2ncnc3[nH]ccc23)cn1 [Ruxolitinib] | 0.985 ± 0.022 | 1.062 ± 0.005 | 1.03 ± 0.017 | 1.04 ± 0.072 | 0.991 ± 0.028 | 0.976 ± 0.035 | 0.978 ± 0.023 | 0.9518 ± 0.0033 | 0.912 ± 0.032 | 0.915 ± 0.036 | 0.777 ± 0.012 |  |  |  |  |  |  |  |  |  |  | 
C=CC(=O)N1CCC[C@@H](n2nc(-c3ccc(Oc4ccccc4)cc3)c3c(N)ncnc32)C1 [Ibrutinib] | 1.18 ± 0.037 | 1.22 ± 0.063 | 1.2 ± 0.016 | 1.22 ± 0.026 | 1.17 ± 0.054 | 1.24 ± 0.054 | 1.15 ± 0.12 | 1.24 ± 0.061 | 1.26 ± 0.078 | 1.3 ± 0.071 | 1.06 ± 0.031 |  |  |  |  |  |  |  |  |  |  | 
COc1c(OCCCN2CCOCC2)ccc2c1N=C(NC(=O)c1cnc(N)nc1)N1CCN=C21 [Copanlisib] | 1.09 ± 0.061 | 1.12 ± 0.062 | 1 ± 0.026 | 0.7483 ± 0.0065 | 0.631 ± 0.025 | 0.516 ± 0.018 | 0.469 ± 0.011 | 0.435 ± 0.018 | 0.425 ± 0.017 | 0.403 ± 0.0053 | 0.368 ± 0.002 |  |  |  |  |  |  |  |  |  |  | 
COc1cccc2c1C(=O)c1c(O)c3c(c(O)c1C2=O)C[C@@](O)(C(=O)CO)C[C@@H]3O[C@H]1C[C@H](N)[C@H](O)[C@H](C)O1 [Doxorubicin Hydrochloride] | 1.21 ± 0.03 | 1.21 ± 0.023 | 1.2 ± 0.058 | 1.157 ± 0.0079 | 1.06 ± 0.044 | 0.96 ± 0.031 | 0.821 ± 0.062 | 0.731 ± 0.14 | 0.813 ± 0.013 | 0.803 ± 0.033 | 0.693 ± 0.024 |  |  |  |  |  |  |  |  |  |  | 
CO[C@H]1C[C@@H]2CC[C@@H](C)[C@@](O)(O2)C(=O)C(=O)N2CCCC[C@H]2C(=O)O[C@H]([C@H](C)C[C@@H]2CC[C@@H](OP(C)(C)=O)[C@H](OC)C2)CC(=O)[C@H](C)/C=C(\C)[C@@H](O)[C@@H](OC)C(=O)[C@H](C)C[C@H](C)/C=C/C=C/C=C/1C [Ridaforolimus] | 1.14 ± 0.081 | 1.11 ± 0.065 | 1.07 ± 0.021 | 0.971 ± 0.07 | 0.896 ± 0.043 | 0.862 ± 0.026 | 0.839 ± 0.033 | 0.846 ± 0.049 | 0.833 ± 0.025 | 0.791 ± 0.045 | 0.749 ± 0.068 |  |  |  |  |  |  |  |  |  |  | 
COc1cc2nccc(Oc3ccc(NC(=O)Nc4cc(C)on4)c(Cl)c3)c2cc1OC [Tivozanib] | 1.17 ± 0.059 | 1.16 ± 0.028 | 1.19 ± 0.096 | 1.19 ± 0.054 | 1.16 ± 0.042 | 1.122 ± 0.0093 | 1.15 ± 0.027 | 1.23 ± 0.066 | 1.25 ± 0.092 | 1.12 ± 0.054 | 0.918 ± 0.037 |  |  |  |  |  |  |  |  |  |  | 
C[C@@H](c1ccc2nccn2c1)n1nnc2ncc(-c3cnn(C)c3)nc21 [Volitinib] | 1.17 ± 0.067 | 1.17 ± 0.028 | 1.17 ± 0.022 | 1.14 ± 0.083 | 1.18 ± 0.048 | 1.17 ± 0.034 | 1.16 ± 0.064 | 1.15 ± 0.032 | 1.13 ± 0.019 | 1.13 ± 0.018 | 0.968 ± 0.092 |  |  |  |  |  |  |  |  |  |  | 
COc1cc2c(cc1O)CCN[C@]21CS[C@@H]2c3c(OC(C)=O)c(C)c4c(c3[C@H](COC1=O)N1[C@@H]2[C@H]2c3c(cc(C)c(OC)c3O)C[C@@H]([C@@H]1O)N2C)OCO4 [Trabectedin] |  |  |  |  |  |  |  |  |  |  |  | 1.22 ± 0.037 | 1.2 ± 0.027 | 1.22 ± 0.047 | 1.18 ± 0.06 | 1.2 ± 0.045 | 1.1605 ± 0.00091 | 0.64 ± 0.054 | 0.811 ± 0.043 | 0.84 ± 0.038 | 1.17 ± 0.051 | 1.2 ± 0.071
Cc1nc(-c2cn3c(n2)-c2ccc(-c4cnn(C(C)(C)C(N)=O)c4)cc2OCC3)n(C(C)C)n1 [Taselisib] | 1.09 ± 0.027 | 1.1 ± 0.036 | 1.06 ± 0.019 | 1.01 ± 0.027 | 0.923 ± 0.036 | 0.75 ± 0.021 | 0.634 ± 0.009 | 0.549 ± 0.017 | 0.477 ± 0.0088 | 0.445 ± 0.026 | 0.451 ± 0.015 |  |  |  |  |  |  |  |  |  |  | 
COc1cc2c(Oc3ccc4[nH]c(C)cc4c3F)ncnc2cc1OCCCN1CCCC1 [Cediranib] | 1.18 ± 0.024 | 1.17 ± 0.076 | 1.17 ± 0.03 | 1.17 ± 0.059 | 1.16 ± 0.033 | 1.169 ± 0.011 | 1.15 ± 0.029 | 1.19 ± 0.033 | 1.2 ± 0.035 | 1.19 ± 0.039 | 0.987 ± 0.058 |  |  |  |  |  |  |  |  |  |  | 
Cc1nc(NC(=O)N2CCC[C@H]2C(N)=O)sc1-c1ccnc(C(C)(C)C(F)(F)F)c1 [Alpelisib] | 1.09 ± 0.054 | 1.12 ± 0.043 | 1.12 ± 0.059 | 1.15 ± 0.065 | 1.09 ± 0.089 | 1.05 ± 0.026 | 1.07 ± 0.061 | 0.968 ± 0.025 | 0.876 ± 0.0097 | 0.643 ± 0.025 | 0.446 ± 0.036 |  |  |  |  |  |  |  |  |  |  | 
COc1cc2/c(=N/c3ccc(Br)cc3F)nc[nH]c2cc1OCC1CCN(C)CC1 [Vandetanib] | 1.13 ± 0.018 | 1.09 ± 0.075 | 1.14 ± 0.035 | 1.12 ± 0.074 | 1.16 ± 0.033 | 1.16 ± 0.02 | 1.16 ± 0.069 | 1.168 ± 0.0075 | 1.15 ± 0.038 | 1.03 ± 0.054 | 0.132 ± 0.016 |  |  |  |  |  |  |  |  |  |  | 
